From patent publication US11083725B2 (priority 2014, dated 2021)

Tested on: NHBE cells
Experiment: Biolog metabolic array: substrate use by NHBE cells with or without CA09 infection
Type: cell-based, human
Details: for Substrate use, 590 nm absorbance normalized to zero hour, 0 hr: Biolog PMM2, 0 hr; for Substrate use, 590 nm absorbance normalized to zero hour, 1 hr: Biolog PMM2, 1 hr; for Substrate use, 590 nm absorbance normalized to zero hour, 5 hr: Biolog PMM2, 5 hr; for Substrate use, 590 nm absorbance normalized to zero hour, 7 hr: Biolog PMM2, 7 hr
[1] = Control (uninfected) NHBE cells
[2] = Virus (CA09, MOI 1) infected NHBE cells
[3] = Virus (CA09-infected, MOI 1) NHBE cells
[4] = Virus: CA09-infected NHBE cells, MOI 1, Biolog PMM2

| Compound | 590 nm absorbance normalized to zero hour (substrate use), 1 hr [1] | 590 nm absorbance normalized to zero hour (substrate use), 2 hr [1] | 590 nm absorbance normalized to zero hour (substrate use), 3 hr [1] | 590 nm absorbance normalized to zero hour (substrate use), 4 hr [1] | 590 nm absorbance normalized to zero hour (substrate use), 6 hr [1] | 590 nm absorbance normalized to zero hour (substrate use), 8 hr [1] | 590 nm absorbance normalized to zero hour (substrate use), 9 hr [1] | 590 nm absorbance normalized to zero hour (substrate use), 10 hr [1] | 590 nm absorbance normalized to zero hour (substrate use), 11 hr [1] | Substrate use, 590 nm absorbance normalized to zero hour, 1 hr [1] | Substrate use, 590 nm absorbance normalized to zero hour, 5 hr [1] | Substrate use, 590 nm absorbance normalized to zero hour, 7 hr [1] | 590 nm absorbance normalized to zero hour (substrate use), 1 hr [3] | 590 nm absorbance normalized to zero hour (substrate use), 2 hr [3] | 590 nm absorbance normalized to zero hour (substrate use), 3 hr [3] | 590 nm absorbance normalized to zero hour (substrate use), 4 hr [3] | 590 nm absorbance normalized to zero hour (substrate use), 6 hr [3] | 590 nm absorbance normalized to zero hour (substrate use), 8 hr [3] | 590 nm absorbance normalized to zero hour (substrate use), 9 hr [3] | 590 nm absorbance normalized to zero hour (substrate use), 10 hr [3] | further results |
| --- | --- | --- | --- | --- | --- | --- | --- | --- | --- | --- | --- | --- | --- | --- | --- | --- | --- | --- | --- | --- | --- |
| O=C(O)[C@H](O)[C@@H](O)[C@H](O)[C@H](O)CO[C@H]1O[C@H](CO)[C@H](O)[C@H](O)[C@H]1O [Melibionic Acid] | 0.20 | 0.76 | 0.58 | 0.66 | 0.40 | 0.51 | 0.53 | 0.57 | 0.60 | 0.20 | 0.48 | 0.47 | 3.52 | 3.58 | 3.59 | 3.66 | 3.22 | 2.89 | 2.67 | 1.66 | 590 nm absorbance normalized to zero hour (substrate use), 0 hr [1]: 1.00; Substrate use, 590 nm absorbance normalized to zero hour, 0 hr [1]: 1.00; Substrate use, 590 nm absorbance normalized to zero hour, 0 hr [2]: 1.00; Substrate use, 590 nm absorbance normalized to zero hour, 1 hr [2]: 3.52; Substrate use, 590 nm absorbance normalized to zero hour, 5 hr [2]: 3.34; Substrate use, 590 nm absorbance normalized to zero hour, 7 hr [2]: 3.05; 590 nm absorbance normalized to zero hour (substrate use), 0 hr [3]: 1.00; 590 nm absorbance normalized to zero hour (substrate use), 11 hr [3]: 2.18 |
| O=C(O)C[C@H](O)C(=O)O [L-Malic Acid] | 1.11 | 1.27 | 1.37 | 1.35 | 0.72 | 1.35 | 1.39 | 1.37 | 1.43 | 1.11 | 1.41 | 1.33 | 1.48 | 1.19 | 1.27 | 3.32 | 1.42 | 3.48 | 1.72 | 2.20 | 590 nm absorbance normalized to zero hour (substrate use), 0 hr [1]: 1.00; Substrate use, 590 nm absorbance normalized to zero hour, 0 hr [1]: 1.00; 590 nm absorbance normalized to zero hour (substrate use), 0 hr [3]: 1.00; 590 nm absorbance normalized to zero hour (substrate use), 5 hr [3]: 1.59; 590 nm absorbance normalized to zero hour (substrate use), 7 hr [3]: 2.93; 590 nm absorbance normalized to zero hour (substrate use), 11 hr [3]: 2.05; 590 nm absorbance normalized to zero hour (substrate use), 0 hr [4]: 1.00; 590 nm absorbance normalized to zero hour (substrate use), 1 hr [4]: 1.48; 590 nm absorbance normalized to zero hour (substrate use), 2 hr [4]: 1.19; 590 nm absorbance normalized to zero hour (substrate use), 3 hr [4]: 1.27; 590 nm absorbance normalized to zero hour (substrate use), 4 hr [4]: 3.32; 590 nm absorbance normalized to zero hour (substrate use), 5 hr [4]: 1.59; 590 nm absorbance normalized to zero hour (substrate use), 6 hr [4]: 1.42; 590 nm absorbance normalized to zero hour (substrate use), 7 hr [4]: 2.93; 590 nm absorbance normalized to zero hour (substrate use), 8 hr [4]: 3.48; 590 nm absorbance normalized to zero hour (substrate use), 9 hr [4]: 1.72; 590 nm absorbance normalized to zero hour (substrate use), 10 hr [4]: 2.20; 590 nm absorbance normalized to zero hour (substrate use), 11 hr [4]: 2.05 |
| CC(=O)N[C@H]1C(O)O[C@H](CO)[C@@H](O)[C@@H]1O (stereo partly drawn) [N-Acetyl-D-Glucosamine] | 0.19 | 0.27 | 0.32 | 0.34 | 0.32 | 0.48 | 0.50 | 0.45 | 0.44 | 0.19 | 0.40 | 0.46 | 2.25 | 3.27 | 3.85 | 4.12 | 5.27 | 6.03 | 6.65 | 6.45 | Substrate use, 590 nm absorbance normalized to zero hour, 1 hr [2]: 2.25; Substrate use, 590 nm absorbance normalized to zero hour, 5 hr [2]: 4.99; Substrate use, 590 nm absorbance normalized to zero hour, 7 hr [2]: 5.67; 590 nm absorbance normalized to zero hour (substrate use), 11 hr [3]: 5.53 |
